Measured values from patent publication US11339124B2, “3-(benzylamino)-4-(cyclohexylamino)-n-(2-(piperazin-1-yl)ethyl)benzenesulfonamide derivatives and related ferrostatin-1 analogues as cell death inhibitors for treating e.g. stroke” (VIB VZW, priority 2018, dated 2022).

Tests used:
[1] = Microsomal (metabolic) stability, rat liver microsomes; conditions: rat, liver microsomes
From the text: (§1) By using the measured microsomal in vitro t1/2, a calculated value for the intrinsic clearance Clint can be determined. This value states the measure in which a drug that is not bound to plasma proteins is irreversibly removed from the body by the liver. This value is expressed in mL/min/kg which can be interpreted as the volume of blood in mL that is cleared of a drug per minute per kilogram of body weight. The CLint is less sensitive to used variables in ADME assays since the amount of microsomal protein and the volume of the incubation are all taken into account. (Sohlenius-Sternbeck et al., Xenobiotica, 2012, 42, 841-853)
(§2) Liver microsomes (20 mg protein/ml), NADPH regenerating system solutions A & B and 5 mM stock compound solution (100% DMSO) are prepared. The reaction mixture finally contains 713 μL purified water, 200 μL 0.5 M potassium phosphate pH 7.4, 50 μL NADPH regenerating system solution A (BD Biosciences Cat. No. 451220), 10 μL NADPH regenerating system solution B (BD Biosciences Cat. No. 451200) and 2 μL of the compound stock solution (10 μM final concentration). The reaction mixture is warmed to 37° C. for 5 minutes in a water bath and the reaction is initiated by addition of 25 μL of liver microsomes (0.5 mg protein/ml final concentration). At different time points (0 min-15 min-30 min-60 min-120 min-240 min-360 min-24 h), 20 μL is withdrawn and 80 μL cold acetonitrile is added on ice for 10 minutes. Then the mixtures are centrifuged at 13 000 rpm for 5 min at 4° C. The supernatant is further diluted in 90% water/MeCN (1/25) to fall within the range of the LC/MS/MS analysis. At each time point, the compound is analysed using LC/MS/MS with the same UPLC system as described above. A standard curve of six points was made to fit the measured concentrations. Verapamil was used as a positive control.
(§3) All obtained readouts were processed using Microsoft Excel. In order to determine the microsomal half-life t1/2 of the compounds, the rate constant k was determined by plotting the exponential decay graphs using GraFit. Microsomal t1/2 was determined using the following formula: […]

[2] = Microsomal (metabolic) stability, mouse liver microsomes; conditions: liver microsomes, pH 7.4
From the text: as §1, §2, §3

[3] = Plasma stability, human plasma; type: in vitro ADME; conditions: 37° C., remaining parent compound, read-out: Plasma stability (% recovery after 6 h), Human
Experimental: (§4) 5 μl of a 10 mM stock solution of the compound in DMSO was added to 995 μl of plasma to obtain a 50 μM final solution. The mixture was gently shaken for 6 h at 37° C. Aliquots of 100 μl were taken at various time points (0, 0.5 h, 1 h, 2 h, 3 h and 6 h) and diluted with 400 μl of cold methanol (stored at 4° C.). The suspension was centrifuged at 14000 rpm for 5 min. 50 μl of the supernatant was diluted with 950 μl of methanol and analysed with LC/MS/MS. The samples were analysed in triplicate. The experiment was done in duplicate. […] Enalapril maleate was used as a control in mice, rats, and in human.

[4] = Plasma stability, rat plasma; type: in vitro ADME; conditions: 37° C., remaining parent compound, read-out: Plasma stability (% recovery after 6 h), Rat
Experimental: as §4

[5] = Plasma stability, mouse plasma; type: in vitro ADME; conditions: 37° C., remaining parent compound, read-out: Plasma stability (% recovery after 6 h), Mouse
Experimental: as §4

[6] = system: IMR-32 Neuroblastoma cells; experiment: Erastin-induced ferroptosis in IMR-32 neuroblastoma cells (Sytox Green cell death readout); type: cell-based; conditions: Homo sapiens; IMR-32 cells, 10 μM erastin, compounds 1 nM to 1 μM, triplicate; read-out: IC50, antiferroptotic activity in response to erastin-induced ferroptosis
Experimental: In the present invention the potency of a compound inhibiting (or reducing) ferroptosis and/or oxytosis are determined in in vitro or in vivo assays. Typically in vitro assays are used to measure the potency of a candidate compound. Examples of suitable in vitro assays are cellular assays. One non-limiting example of an assay involves the use of the IMR-32 neuroblastoma cell line. The latter is stimulated to enter into ferroptosis upon stimulation with 10 μM erastin, a documented ferroptosis inducer (see for example Dixon et al (2012) Cell 149, 1060-1072 and ferroptosis inhibitors are evaluated for the prevention of erastin induced ferroptosis. Yet another assay is based the glutamate-induced cell death in the hippocampal cell line HT22 and ferroptosis/oxytosis inhibitors are evaluated for the prevention of cell death (see Henke N. et al (2013) Cell Death and Disease 4, e470). Still another assay is based on the sorafinib induced cell death (described to be iron dependent cell death) in hepatocellular carcinoma cells and ferroptosis inhibitors are evaluated for the prevention of cell death (see Louandre C. et al (2013) Int. J. Cancer 133, 1732). The calculated potency of a compound inhibiting ferroptosis and/or oxytosis is typically depicted as an IC50 value. Examples of suitable in vivo assays are typically pre-clinical disease models of for example mice for the diseases benefiting the application of ferroptosis and/or oxytosis inhibitors, as described herein. One non-limiting example of an in vivo assay is based on inducing liver damage in mice by administering the herbicide diquat dibromide monohydrate and ferroptosis inhibitors are evaluated based on reduced levels of liver transaminases in serum (see Ran Q et al (2004) J. Biol. Chem. 279, 53, 55137).
The IC50 values for the individual compounds of the invention were determined in the neuroblastoma, IMR-32 cell line. In brief, IMR-32 cells were subjected to 10 μM erastin, the latter compound is known to induce ferroptosis. A concentration gradient (ranging from 1 nM to 1 μM) of the compounds was applied to the cells. These experiments were performed in a 96-well format (in triplicate), and cell death was analyzed in a fluorescent plate reader by use of a fluorescent cell death dye (1.5 μM Sytox Green). The IC50 values depicted in Table 1 are the concentration values for the individual compounds which are able to overcome ferroptosis.

[7] = Kinetic solubility (turbidimetric method); type: physicochemical; conditions: 10 mM PBS pH 7.4, 2% DMSO, test range 3.125-200 μM, 2 h at 37° C.
Experimental: A turbidimetric method was used. First a series of DMSO compound stock solutions was prepared ([…]). An aliquot of 4 μL stock solution was added to 196 μL PBS buffer (pH 7.4). A series of concentrations were prepared (3.13-200 μM), including a blank on a microtiter plate. (2% DMSO-D6) The microtiter plate was shaken for 10 seconds and incubated for 2 hours at 37° C. When there was no turbidity measured at a given concentration the sample was assumed to be dissolved.

[8] = Microsomal (metabolic) stability, human liver microsomes; conditions: human, liver microsomes
From the text: as §1, §2, §3

CLint scaled at 10 µM ([1]; pH 7.4): 326 ± 13.2 mL/min/kg
half-life at 10 µM ([1]; pH 7.4, Microsomal stability (t1/2), rat liver microsomes, 0.5 mg protein/ml, 10 μM compound, 37° C.): 10.4 ± 0.42 min
CLint scaled at 10 µM [2]: 1220 ± 48 mL/min/kg
half-life at 10 µM [2]: 3.06 ± 0.12 min
recovery at 6 h, 50 μM [3]: 100%
recovery at 6 h, 50 μM [4]: 100%
recovery at 6 h, 50 μM [5]: 100%
Solubility (kinetic) [7]: 50 to 100 µM
CLint scaled at 10 µM ([8]; pH 7.4): 22.6 ± 8.1 mL/min/kg
half-life at 10 µM ([8]; pH 7.4, Microsomal stability (t1/2), human liver microsomes, 0.5 mg protein/ml, 10 μM compound, 37° C.): 58.8 ± 21 min
Structure (SMILES): O=S(=O)(NCCN1CCOCC1)c1ccc(NC2CCCCC2)c(NCc2ccccc2)c1 [Compound 35, 3-(benzylamino)-4-(cyclohexylamino)-N-(2-morpholinoethyl)benzenesulfonamide]
IC50 [6]: 24 nM
